Melting point data for six molecules are collected here from US7067521B2, “1-[alkyl], 1-[(heteroaryl)alkyl] and 1-[(aryl)alkyl]-7pyridinyl-imidazo[1,2-alpha]pyrimidin-5(1H)-one derivatives” (sanofi-aventis, priority 2000, dated 2006).

Counter-ions that a name gives are not always drawn.

`O=C(CCn1ccn2c(=O)cc(-c3ccncc3)nc12)c1ccccc1` (as salt: hydrochloride) [Compound 23, 1-(3-phenyl-3-oxo-propyl)-7-pyridin-4-ylimidazo[1,2-a]pyrimidin-5(1H)-one] displayed a melting point of 208 to 211 °C.
Molecule `O=c1cc(-c2ccncc2)nc2n(CC[C@H](O)C(F)(F)F)ccn12` [Compound 17, (S)-1-(4,4,4-trifluoro-3-hydroxybutyl)-7-pyridin-4-ylimidazo[1,2-a]pyrimidin-5(1H)-one] returned a melting point of 220 to 222 °C.
`O=c1cc(-c2ccncc2)nc2n(C=CCC(F)(F)F)ccn12` [Compound 20, 1-(4,4,4-trifluorobut-1-enyl)-7-pyridin-4-ylimidazo[1,2-a]pyrimidin-5(1H)-one]: the melting point lay in the range of 221 to 222 °C.
`O=c1cc(-c2ccncc2)nc2n(CCCCc3ccccc3)ccn12` (as salt: hydrochloride) [Compound 14, 1-[4-(phenyl)butyl]-7-pyridin-4-ylimidazo[1,2-a]pyrimidin-5(1H)-one] registered a melting point of 206 to 208 °C.
Then `O=c1cc(-c2cccnc2)nc2n(CCCc3ccccc3)ccn12` (as salt: hydrochloride) [Compound 15, 1-[3-(phenyl)propyl]-7-pyridin-3-ylimidazo[1,2-a]pyrimidin-5(1H)-one], with 184 to 185 °C; and `O=c1cc(-c2ccncc2)nc2n(CC=CC(F)(F)F)ccn12` [Compound 18, 1-(4,4,4-trifluorobut-2-enyl)-7-pyridin-4-ylimidazo[1,2-a]pyrimidin-5(1H)-one], with 187 to 188 °C.

What is called melting point is the temperature of the solid-liquid transition.
